Results as given in patent publication EP0045157A1, “Macrolide antibiotics, their preparation and veterinary compositions containing them” (ELI LILLY AND COMPANY, priority 1980, dated 1982).

Legend:
[1] = Electrometric titration (pKa); format: physicochemical; conditions: electrometric titration in 66% aqueous dimethylformamide; read-out: pKa value of titratable group
Description: Electrometric titration of DOMM in 66% aqueous dimethylformamide indicates the presence of a titratable group with a pKa value of about 7.14.

[2] = Solubility; format: physicochemical; conditions: water and most polar organic solvents (acetone, methanol, ethanol, chloroform, dimethylformamide, dimethyl sulfoxide)
Description: DOMM acid addition salts are more soluble in water than is DOMM base.

Which pKa [1] does the source give for `CCC1OC(=O)CC(O)C(C)C(OC2OC(C)C(OC3CC(C)(O)C(O)C(C)O3)C(N(C)C)C2O)C(CC=O)CC(C)C(=O)C=CC(C)=CC1COC1OC(C)C(O)C(O)C1O` (centres unmarked) [DOMM, 2"'-O-demethylmacrocin] here?
The pKa was roughly 7.14.

And the solubility [2]?
The solubility was “soluble in water and in most polar organic solvents”.
